Test results as given in patent US8741897B2, “Glucocorticoid mimetics, methods of making them, pharmaceutical compositions and uses thereof” (Boehringer Ingelheim Pharmaceuticals Inc., priority 2003, dated 2014).

How the values were obtained:
[1] = target: T1, human glucocorticoid receptor (GR) complex (Homo sapiens, UniProt P04150); test: Glucocorticoid receptor competitive binding assay (fluorescence polarization, TAMRA-labeled dexamethasone probe); settings: compounds of Formula (IA)
T1 construct: made in house; host or cells: insect expression system (baculovirus lysate)
T1 sequence (P04150 1-777): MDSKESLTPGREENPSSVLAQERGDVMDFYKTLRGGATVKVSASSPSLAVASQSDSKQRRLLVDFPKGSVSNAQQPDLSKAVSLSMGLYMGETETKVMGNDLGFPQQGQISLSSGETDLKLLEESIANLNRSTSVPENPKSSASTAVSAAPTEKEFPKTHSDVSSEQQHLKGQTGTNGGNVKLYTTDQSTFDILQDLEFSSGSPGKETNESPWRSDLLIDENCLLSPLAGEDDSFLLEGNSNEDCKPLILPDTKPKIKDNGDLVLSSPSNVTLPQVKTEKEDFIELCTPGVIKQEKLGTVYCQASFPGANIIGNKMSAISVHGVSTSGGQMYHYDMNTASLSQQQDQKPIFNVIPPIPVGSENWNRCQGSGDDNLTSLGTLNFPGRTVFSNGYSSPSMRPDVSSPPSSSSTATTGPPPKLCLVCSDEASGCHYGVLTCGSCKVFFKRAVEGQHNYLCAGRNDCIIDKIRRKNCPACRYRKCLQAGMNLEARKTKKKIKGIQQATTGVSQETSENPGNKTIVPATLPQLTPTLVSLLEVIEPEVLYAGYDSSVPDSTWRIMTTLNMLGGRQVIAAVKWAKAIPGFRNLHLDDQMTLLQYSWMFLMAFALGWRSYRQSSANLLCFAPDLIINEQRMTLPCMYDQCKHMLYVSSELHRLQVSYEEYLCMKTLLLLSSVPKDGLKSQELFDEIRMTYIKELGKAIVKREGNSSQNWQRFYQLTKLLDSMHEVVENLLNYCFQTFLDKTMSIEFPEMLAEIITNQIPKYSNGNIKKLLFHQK
Summary of the method: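 Fluorescence-polarization competition against 15 nM TAMRA-dexamethasone (stock added to the mix) for human GR complex from baculovirus lysate diluted 1:170. Buffer: 10 mM TES, 50 mM KCl, 20 mM Na2MoO4, 1.5 mM EDTA, 0.04% CHAPS, 10% glycerol, 1 mM DTT, pH 7.4. IC50 from 4-parameter logistic fit.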

[2] = system: glucocorticoid receptor function; test: one or more of the above assays (GR binding and glucocorticoid receptor cell assays: aromatase, IL-6, TAT, MMTV-Luc, IL-8, ICAM-Luc); assay type: cell-based; settings: assay not specified per compound

activity in the GR binding assay [1] | SMILES | activity as agonists of the glucocorticoid receptor function in one or more of the above assays [2]
potent activity | Cc1ccc(F)cc1C(C)(C)CC(O)(Cc1cc2cnccc2[nH]1)C(F)(F)F (stereo not shown) [1,1,1-Trifluoro-4-(5-fluoro-2-methylphenyl)-4-methyl-2-(1H-pyrrolo[3,2-c]pyridin-2-ylmethyl)pentan-2-ol] | potent agonists
potent activity | COc1ccc(F)cc1C(C)(C)CC(O)(Cc1[nH]c2ccncc2c1CN(C)C)C(F)(F)F (stereo not shown) [2-(3-Dimethylaminomethyl-1H-pyrrolo[3,2-c]pyridin-2-ylmethyl)-1,1,1-trifluoro-4-(5-fluoro-2-methoxyphenyl)-4-methylpentan-2-ol] | potent agonists
potent activity | CC(C)(CC(O)(Cc1cc2cc(C(F)(F)F)ncc2[nH]1)C(F)(F)F)c1cc(Cl)cc2c1OCC2 (stereo not shown) [4-(5-Chloro-2,3-dihydrobenzofuran-7-yl)-1,1,1-trifluoro-4-methyl-2-(5-trifluoromethyl-1H-pyrrolo[2,3-c]pyridin-2-ylmethyl)pentan-2-ol] | potent agonists
potent activity | CSc1ccc2[nH]c(CC(O)(CC(C)(C)c3cc(F)cc4c3OCC4)C(F)(F)F)cc2c1 (stereo not shown) [1,1,1-Trifluoro-4-(5-fluoro-2,3-dihydrobenzofuran-7-yl)-4-methyl-2-(5-methylsulfanyl-1H-indol-2-ylmethyl)pentan-2-ol] | potent agonists
potent activity | CC(C)(CC(O)(Cc1cc2ccncc2[nH]1)C(F)(F)F)c1cc(Br)cc2c1OCC2 (stereo not shown) [4-(5-Bromo-2,3-dihydrobenzofuran-7-yl)-1,1,1-trifluoro-4-methyl-2-(1H-pyrrolo[2,3-c]pyridin-2-ylmethyl)pentan-2-ol] | potent agonists
potent activity | COc1ccc(F)cc1C(C)(C)CC(O)(Cc1cc2c(C#N)nccc2[nH]1)C(F)(F)F (stereo not shown) [2-[4-(5-Fluoro-2-methoxyphenyl)-2-hydroxy-4-methyl-2-trifluoromethylpentyl]-1H-pyrrolo[3,2-c]pyridine-4-carbonitrile] | potent agonists
potent activity | CC(C)(CC(O)(Cc1cc2ccccc2[nH]1)C(F)(F)F)c1ccccc1C(F)(F)F (stereo not shown) [1,1,1-Trifluoro-2-(1H-indol-2-ylmethyl)-4-methyl-4-(2-trifluoromethylphenyl)pentan-2-ol] | potent agonists
potent activity | CC(C)(CC(O)(Cc1cc(Cl)nc2ccc(Cl)cc12)C(F)(F)F)c1cc(F)ccc1O (stereo not shown) [2-[3-(2,6-Dichloroquinolin-4-ylmethyl)-4,4,4-trifluoro-3-hydroxy-1,1-dimethylbutyl]-4-fluorophenol] | potent agonists
potent activity | CN(C)C(=O)c1ccc2[nH]c(CC(O)(CC(C)(C)c3cc(Br)cc4c3OCC4)C(F)(F)F)cc2c1 (stereo not shown) [2-[4-(5-Bromo-2,3-dihydrobenzofuran-7-yl)-2-hydroxy-4-methyl-2-trifluoromethylpentyl]-1H-indole-5-carboxylic acid dimethylamide] | potent agonists
potent activity | CC(C)(CC(O)(Cc1cc2ccccc2[nH]1)C(F)(F)F)c1cc(F)ccc1OC(F)F (stereo not shown) [4-(2-Difluoromethoxy-5-fluorophenyl)-1,1,1-trifluoro-2-(1H-indol-2-ylmethyl)-4-methylpentan-2-ol] | potent agonists
potent activity | CCC(C)(CC(O)(Cc1ccnc2ccccc12)C(F)(F)F)c1ccccc1 (stereo not shown) [1,1,1-Trifluoro-4-methyl-4-phenyl-2-quinolin-4-ylmethylhexan-2-ol] | potent agonists
